Data: patent publication US20220242874A1, “CAMPTOTHECIN DERIVATIVES” (SUN PHARMA ADVANCED RESEARCH COMPANY LIMITED, priority 2019, published 2022)
Like-named read-outs stand apart in the source and are kept apart here.

Experiments:
[1] = Camptosar Prescribing Information; cited from earlier work
[2] = mouse, 2000 ng/mL, pH 5.5
Procedure: Aliquot of 100 μL were taken from stability samples in pre-labelled micro-centrifuge tubes. 5 μL of cetirizine working internal standard (5 μg/mL) was added to each tube and vortexed well. 1 mL acetonitrile was added to each tube and vortexed well and then centrifuge at 10000 RPM for 5 min at room temperature. The supernatant was collected in ria vials and evaporated to dryness under nitrogen stream. The samples were reconstituted in 1 mL of 0.1% formic acid in water: acetonitrile 30:70 v/v. The prepared samples were analyzed using LC-MS/MS method. Quantification was done against SN-38 standard, prepared at 2000 ng/mL concentration. SN-38 standard prepared by spiking 5 μL of SN-38 working standard to 95 μL of blank mice tumor homogenate to achieve 2000 ng/mL concentration and vortexed well and processed as described.
LC-MS/MS Method: Chromatographic separation was achieved on Inertsil C8-3 (50×4.6 mm, 5 μ) with a flow rate of 250 μL/min and an injection volume of 10 μL. The sample cooler was maintained at 10° C. The column oven temperature was set to 40° C. The mobile phase consisted of 0.1% formic acid in Milli Q water and acetonitrile in the ratio of 30:70 v/v, respectively. […] The overall chromatographic run time was 4.0 minutes.
Detection was performed by tandem mass spectrometry (TSQ Quantum, Discovery MAX, Thermo Electron Corporation) and peak areas were integrated using LCquan software version 2.9 QF1.
0 hr standard area was considered as 100% for calculation.

[3] = Comparison of solubility in water; assay type: physicochemical
Excerpt: Comparison of Solubility of Compound I.4 in Water with SN-38

- % Remaining in tumor lysate ([2]; 0 h): 100.0%
- % Remaining in tumor lysate ([2]; 1 h): 94.9%
- % Remaining in tumor lysate ([2]; 2 h): 90.7%
- % Remaining in tumor lysate ([2]; 4 h): 100.1%
- % Remaining in tumor lysate ([2]; 6 h): 88.9%
- % Remaining in tumor lysate ([2]; 8 h): 91.4%
- Solubility in water [3]: Practically insoluble in water
Compound: CCc1c2c(nc3ccc(O)cc13)-c1cc3c(c(=O)n1C2)COC(=O)[C@]3(O)CC [SN-38]
- protein bound in plasma [1]: About 96%
